Legend:
Type in all cases: in vitro ADME
[1] = target: T1, MATE2‐K (Homo sapiens, UniProt Q86VL8); test: Transporter substrate determination, uptake in HEK293-MATE2K cells; details: for Maximum Ratio (uptake in transporter‐expressing cells to empty‐vector control cells): HEK293‐MATE2K, 0.1, 1, 10 µM, threshold ≥2‐fold; for substrate of the transporter: MATE2‐K
T1 construct: host or cells: HEK293
Method: (§1) LC‐MS/MS analyses to assess metabolic stability and identify the transporter substrate were performed using an API 4000 QTRAP mass spectrometer (SCIEX, Framingham, MA) with electrospray ionization in positive mode. Chromatography was performed using an Atlantis dC18 analytical column (100 × 2.1 mm, 5 µm; Waters Corporation, Milford, MA). Mobile phases were 0.2% v/v formic acid in water and 0.2% v/v formic acid in acetonitrile. For metabolic stability experiments, FFA and metabolites were eluted at a flow rate of 0.6 mL/min, with a linear gradient of 20%−80% acetonitrile from 0.30−2.0 min. For transporter substrate experiments, the gradient was slightly modified to achieve suitable chromatography. The mass transitions monitored were 232.0 > 159.0 for FFA and 348.0 > 330.0 for 1ʹ‐OH‐midazolam‐d4 internal standard.
(§2) FFA and nFFA were evaluated as substrates of the transporters breast cancer resistance protein (BCRP), organic anion transporter (OAT)1, OAT3, organic cation transporter (OCT)2, MATE1, MATE2‐K, and P‐glycoprotein multidrug transporter (P‐gp; also known as MDR1 and ABCB1), according to published methods.[25], [26], [27], [28], [29] Madin‐Darby canine kidney (MDCKII)‐BCRP cells (Netherlands Cancer Institute, Amsterdam, Netherlands) or human embryonic kidney (HEK)293 cells transfected with other transporters (Sekisui Medical Co., Ltd., Tokyo, Japan) were used. Transporter‐transfected and control cells were incubated with FFA or nFFA (0.1, 1, or 10 μM), and the amount of FFA and nFFA accumulated in the cells was measured by LC‐MS/MS as described above. The accumulation of positive control substrates in the presence and absence of an inhibitor served as a positive control for transporter function. […] BCRP substrate determination was made by bi‐directional permeability across MDCKII‐BCRP and control cells cultured on 24‐well transwell plates. Incubation medium containing probe substrate was added. Ten minutes later, transepithelial electrical resistance (TEER) was recorded and cells were preincubated at 37 ± 2°C for 30−60 min before FFA or nFFA or positive control substrate with the solvent control or positive control inhibitor was added to the donor (apical) chamber. […] Samples containing FFA, nFFA, or probe substrate were mixed with internal standard and analyzed by LC‐MS/MS. […] An aliquot was added to 96‐well plate containing scintillation fluid that was analyzed by a MicroBeta^2 scintillation counter (Perkin Elmer, Waltham, MA). Protein concentration was determined by a bicinchoninic acid (BCA) protein assay according to the manufacturer’s protocol (Thermo Fisher Scientific, Waltham, MA). Non‐radiolabeled compounds were resuspended in a 50:50 v/v methanol:water solution containing internal standard and were analyzed by LC‐MS/MS. […]

[2] = target: T2, OCT2 (Homo sapiens, UniProt O15244); test: Transporter substrate determination, uptake in HEK293-OCT2 cells; details: for Maximum Ratio (uptake in transporter‐expressing cells to empty‐vector control cells): HEK293‐OCT2, 0.1, 1, 10 µM, threshold ≥2‐fold; for substrate of the transporter: OCT2
T2 construct: host or cells: HEK293
T2 sequence (O15244 1-555): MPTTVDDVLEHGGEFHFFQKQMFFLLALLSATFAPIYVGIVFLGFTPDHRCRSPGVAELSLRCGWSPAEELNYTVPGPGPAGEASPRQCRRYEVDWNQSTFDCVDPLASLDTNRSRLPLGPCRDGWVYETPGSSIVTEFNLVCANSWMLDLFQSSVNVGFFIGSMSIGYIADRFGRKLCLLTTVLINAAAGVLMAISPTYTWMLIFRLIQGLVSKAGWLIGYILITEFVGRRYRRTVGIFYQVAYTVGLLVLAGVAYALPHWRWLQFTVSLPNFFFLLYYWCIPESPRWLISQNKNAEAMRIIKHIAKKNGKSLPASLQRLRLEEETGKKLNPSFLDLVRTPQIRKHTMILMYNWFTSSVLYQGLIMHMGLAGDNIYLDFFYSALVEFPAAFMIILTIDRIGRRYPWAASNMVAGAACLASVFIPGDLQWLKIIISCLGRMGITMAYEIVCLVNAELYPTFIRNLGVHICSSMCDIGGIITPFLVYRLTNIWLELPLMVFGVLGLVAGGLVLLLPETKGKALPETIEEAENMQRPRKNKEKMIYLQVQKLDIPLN
Method: as §1, §2

[3] = target: T3, OAT1 (Homo sapiens, UniProt Q4U2R8); test: Transporter substrate determination, uptake in HEK293-OAT1 cells; details: for Maximum Ratio (uptake in transporter‐expressing cells to empty‐vector control cells): HEK293‐OAT1, 0.1, 1, 10 µM, threshold ≥2‐fold; for substrate of the transporter: OAT1
T3 construct: host or cells: HEK293
T3 sequence (Q4U2R8 1-563): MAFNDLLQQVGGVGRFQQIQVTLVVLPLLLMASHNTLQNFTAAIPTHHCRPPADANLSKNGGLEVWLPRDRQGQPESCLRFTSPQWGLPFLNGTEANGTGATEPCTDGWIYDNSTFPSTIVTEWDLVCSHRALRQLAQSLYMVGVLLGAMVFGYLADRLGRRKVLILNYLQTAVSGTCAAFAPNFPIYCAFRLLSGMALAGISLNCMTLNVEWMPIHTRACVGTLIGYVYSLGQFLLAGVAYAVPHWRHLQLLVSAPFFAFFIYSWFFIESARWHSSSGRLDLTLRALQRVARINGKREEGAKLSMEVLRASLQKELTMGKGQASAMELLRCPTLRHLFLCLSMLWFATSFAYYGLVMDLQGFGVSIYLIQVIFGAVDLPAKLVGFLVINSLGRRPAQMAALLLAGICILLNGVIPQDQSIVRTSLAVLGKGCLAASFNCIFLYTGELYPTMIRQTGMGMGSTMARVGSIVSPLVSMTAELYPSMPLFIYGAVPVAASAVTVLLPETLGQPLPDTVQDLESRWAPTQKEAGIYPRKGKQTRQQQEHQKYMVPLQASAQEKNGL
Method: as §1, §2

T1 sequence (Q86VL8 1-566 isoform Q86VL8-3): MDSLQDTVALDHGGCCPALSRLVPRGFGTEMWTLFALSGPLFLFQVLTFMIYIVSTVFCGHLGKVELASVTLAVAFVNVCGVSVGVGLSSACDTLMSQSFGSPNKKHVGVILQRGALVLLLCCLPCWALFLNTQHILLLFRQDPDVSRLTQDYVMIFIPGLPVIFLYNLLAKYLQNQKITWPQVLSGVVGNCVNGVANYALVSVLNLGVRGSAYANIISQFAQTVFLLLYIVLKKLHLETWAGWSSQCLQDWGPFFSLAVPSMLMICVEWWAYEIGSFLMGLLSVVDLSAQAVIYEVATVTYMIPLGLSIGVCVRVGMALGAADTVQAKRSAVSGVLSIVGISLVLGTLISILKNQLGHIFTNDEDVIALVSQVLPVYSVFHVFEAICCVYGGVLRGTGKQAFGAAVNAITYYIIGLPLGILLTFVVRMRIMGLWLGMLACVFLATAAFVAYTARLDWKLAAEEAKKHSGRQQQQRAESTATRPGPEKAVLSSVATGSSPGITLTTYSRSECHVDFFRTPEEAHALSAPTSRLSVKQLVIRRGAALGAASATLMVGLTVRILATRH

| SMILES | Maximum Ratio (uptake in transporter‐expressing cells to empty‐vector control cells) [1] | substrate of the transporter [1] | Maximum Ratio (uptake in transporter‐expressing cells to empty‐vector control cells) [2] | substrate of the transporter [2] | Maximum Ratio (uptake in transporter‐expressing cells to empty‐vector control cells) [3] | substrate of the transporter [3] |
| --- | --- | --- | --- | --- | --- | --- |
| CCNC(C)Cc1cccc(C(F)(F)F)c1 (racemic) [FFA, (RS)‐ethyl (α‐methyl‐3‐trifluoromethylphenethyl)amine] | 1.40 | not substrates | 1.09 | not substrates | 1.22 | not substrates |
| CC(N)Cc1cccc(C(F)(F)F)c1.Cl (stereo not drawn) [nFFA, 1‐(3‐(trifluoromethyl)phenyl)propan‐2‐amine hydrochloride] | 1.50 | not substrates | 1.16 | not substrates | 1.13 | not substrates |

Reference: article PMC9124820, “In vitro evaluation of fenfluramine and norfenfluramine as victims of drug interactions” (Pharmacology Research & Perspectives, 2022)
